We go through 25 molecules from patent publication US20260256751A1, “COMBINATION OF BETA-2-ADRENERGIC RECEPTOR AGONISTS AND GLP-1 RECEPTOR AGONISTS FOR USE IN TREATING HYPERGLYCAEMIA” (ATROGI AB, priority 2023, published 2026).

Test [1] relates to differentiated L6-myotubes. In words: Glucose uptake screen (Biological example 1 of WO 2019/053427). As to conditions: compound at 10 μM, activity relative to isoproterenol at 10 μM, read-out: Biological example 1 of WO 2019/053427 (GU). Type of test: cell-based. The procedure, abridged:
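Uptake was read out as ^3H-2-deoxyglucose (50 nM, 10 min) radioactivity in NaOH lysates. Beforehand, overnight-starved, differentiated L6 myotubes received compound at 1×10^−5 M with ICI-118551 present for 1 h 40 min, followed by fresh agonist for a further 20 min in glucose-free medium.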

The subject of test [2] is differentiated L6-myotubes. In words: cAMP production relative to isoprenaline (Biological example 2 of WO 2019/053427). As to conditions: 0.25 h, compound at 10 μM, activity relative to isoproterenol at 10 μM. It counts as cell-based. The procedure, abridged: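 Values are cAMP levels relative to isoprenaline at equal concentration (final 1×10^−5 M for both). Stimulation lasted 15 min in differentiated L6 myotubes, using HBSS buffer (pH 7.4) containing 1 mM IBMX, 5 mM HEPES and 1% BSA.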

Consider `CCCS(=O)(=O)N[C@H]1CC[C@@H](CC(C)(C)NC[C@H](O)c2cncc(F)c2)CC1` [Compound 523, (R)-2-{1,1-dimethyl-2-[(1s,4S)-4-(propylsulfonylamin)cyclohexyl]ethylamino}-1-(5-fluoro-3-pyridyl)-1-ethanol], for which the Emax at 10 µM in test [1] is 50 to 75%; in test [2], below 25%.

For `CCS(=O)(=O)N[C@H]1CC[C@@H](CC(C)(C)NC[C@H](O)c2cccc(F)c2)CC1` [Compound 524, (R)-2-{1,1-dimethyl-2-[(1s,4S)-4-(ethylsulfonylamino)cyclohexyl]ethylamino}-1-(m-fluorophenyl)-1-ethanol], the Emax at 10 µM in test [1] is 50 to 75%; in test [2], below 25%.

`CCS(=O)(=O)N[C@H]1CC[C@H](CC(C)(C)NC[C@H](O)c2cncc(F)c2)CC1` [Compound 525, (R)-2-{1,1-dimethyl-2-[(1r,4R)-4-(ethylsulfonylamino)cyclohexyl]ethylamino}-1-(5-fluoro-3-pyridyl)-1-ethanol]: the Emax at 10 µM in test [1] was 50 to 75%; in test [2], below 25%.

With `CC(C)CS(=O)(=O)N[C@H]1CC[C@H](CC(C)(C)NC[C@H](O)c2cncc(F)c2)CC1` [Compound 526, (R)-2-{1,1-dimethyl-2-[(1r,4R)-4-(isobutylsulfonylamino)cyclohexyl]ethylamino}-1-(5-fluoro-3-pyridyl)-1-ethanol], the Emax at 10 µM was 50 to 75% in test [1] and below 25% in test [2].

For `O[C@@H](c1cccc(F)c1)C12CCC(CCc3ccc(Cl)cc3)(CC1)N2` [Compound 527, (S)-{4-[2-(p-chlorophenyl)ethyl]-7-azabicyclo[2.2.1]hept-1-yl}(m-fluorophenyl)methanol], the Emax at 10 µM in test [1] and in test [2] was below 25% each time.

As for `O[C@H](c1cccc(F)c1)C12CCC(CCc3ccc(Cl)cc3)(CC1)N2` [Compound 528, (R)-{4-[2-(p-chlorophenyl)ethyl]-7-azabicyclo[2.2.1]hept-1-yl}(m-fluorophenyl)methanol], the Emax at 10 µM in test [1] and in test [2] was below 25% in each case.

For the molecule `O[C@@H](c1cncc(F)c1)C12CCC(C/C=C/c3ccccc3)(CC1)N2` [Compound 529, (S)-{4-[(E)-3-phenyl-2-propenyl]-7-azabicyclo[2.2.1]hept-1-yl}(5-fluoro-3-pyridyl)methanol], the Emax at 10 µM was 25 to 50% in test [1] and below 25% in test [2].

Regarding `O[C@H](c1cncc(F)c1)C12CCC(C/C=C/c3ccccc3)(CC1)N2` [Compound 530], the Emax at 10 µM is above 75% in test [1] and 25 to 50% in test [2].

As for `O[C@@H](c1cncc(F)c1)C12CCC(CCCc3ccccc3)(CC1)N2` [Compound 531, (S)-(5-fluoro-3-pyridyl){4-(3-phenylpropyl)-7-azabicyclo[2.2.1]hept-1-yl}methanol], the Emax at 10 µM in test [1] was 50 to 75%; in test [2], below 25%.

Turning to `O[C@H](c1cncc(F)c1)C12CCC(CCCc3ccccc3)(CC1)N2` [Compound 532, (R)-(5-fluoro-3-pyridyl){4-(3-phenylpropyl)-7-azabicyclo[2.2.1]hept-1-yl}methanol], the Emax at 10 µM in test [1] fell in the range of 50 to 75%; in test [2], 25 to 50%.

As to `O[C@@H](c1cccc(F)c1)C12CCC(C/C=C/c3ccccc3)(CC1)N2` [Compound 533, (S)-{4-[(E)-3-phenyl-2-propenyl]-7-azabicyclo[2.2.1]hept-1-yl}(m-fluorophenyl)methanol], the Emax at 10 µM in test [1] and in test [2] was below 25% in each case.

Regarding `O[C@H](c1cccc(F)c1)C12CCC(C/C=C/c3ccccc3)(CC1)N2` [Compound 534, (R)-{4-[(E)-3-phenyl-2-propenyl]-7-azabicyclo[2.2.1]hept-1-yl}(m-fluorophenyl)methanol], the Emax at 10 µM was above 75% in test [1] and below 25% in test [2].

With `O[C@@H](c1cccc(F)c1)C12CCC(CCCc3ccccc3)(CC1)N2` [Compound 535, (S)-(m-fluorophenyl){4-(3-phenylpropyl)-7-azabicyclo[2.2.1]hept-1-yl}methanol], the Emax at 10 µM is 25 to 50% in test [1] and below 25% in test [2].

Take `O[C@H](c1cccc(F)c1)C12CCC(CCCc3ccccc3)(CC1)N2` [Compound 536, (R)-(m-fluorophenyl){4-(3-phenylpropyl)-7-azabicyclo[2.2.1]hept-1-yl}methanol]: the Emax at 10 µM in test [1] is above 75%; in test [2] it was 25 to 50%.

Turning to `CS(=O)(=O)N(Cc1ccccc1)CC12CCC([C@H](O)c3cccc(F)c3)(CC1)N2` [Compound 537, (R)-(4-{[(benzyl)-N-mesylamino]methyl}-7-azabicyclo[2.2.1]hept-1-yl)(m-fluorophenyl)methanol], the Emax at 10 µM in test [1] lay in the range of 50 to 75%; in test [2] it was 25 to 50%.

`CS(=O)(=O)N(Cc1ccccc1)CC12CCC([C@@H](O)c3cccc(F)c3)(CC1)N2` [Compound 538, (S)-(4-{[(benzyl)-N-mesylamino]methyl}-7-azabicyclo[2.2.1]hept-1-yl)(m-fluorophenyl)methanol]: the Emax at 10 µM in test [1] was 50 to 75%; in test [2], below 25%.

As to `COc1ccc(CCC23CCC([C@@H](O)c4cccc(F)c4)(CC2)N3)cc1` [Compound 539, (S)-(m-fluorophenyl){4-[2-(p-methoxyphenyl)ethyl]-7-azabicyclo[2.2.1]hept-1-yl}methanol], the Emax at 10 µM in test [1] and in test [2] was below 25% in each case.

With `COc1ccc(CCC23CCC([C@H](O)c4cccc(F)c4)(CC2)N3)cc1` [Compound 540, (R)-(m-fluorophenyl){4-[2-(p-methoxyphenyl)ethyl]-7-azabicyclo[2.2.1]hept-1-yl}methanol], the Emax at 10 µM in test [1] is 50 to 75%; in test [2] it was 25 to 50%.

As for `COc1ccc(CCC23CCC([C@@H](O)c4cncc(F)c4)(CC2)N3)cc1` [Compound 541, (S)-(5-fluoro-3-pyridyl){4-[2-(p-methoxyphenyl)ethyl]-7-azabicyclo[2.2.1]hept-1-yl}methanol], the Emax at 10 µM in test [1] and in test [2] was below 25% in each case.

Consider `COc1ccc(CCC23CCC([C@H](O)c4cncc(F)c4)(CC2)N3)cc1` [Compound 542, (R)-(5-fluoro-3-pyridyl){4-[2-(p-methoxyphenyl)ethyl]-7-azabicyclo[2.2.1]hept-1-yl}methanol], for which the Emax at 10 µM is 50 to 75% in test [1] and 25 to 50% in test [2].

Take `O[C@@H](c1cncc(F)c1)C12CCC(CCc3ccc(OC(F)(F)F)cc3)(CC1)N2` [Compound 543, (S)-(5-fluoro-3-pyridyl){4-[2-(p-trifluoromethoxyphenyl)ethyl]-7-azabicyclo[2.2.1]hept-1-yl}methanol]: the Emax at 10 µM in test [1] and in test [2] was below 25% throughout.

As to `O[C@@H](c1cccc(F)c1)C12CCC(CCc3ccc(OC(F)(F)F)cc3)(CC1)N2` [Compound 544, (S)-(m-fluorophenyl){4-[2-(p-trifluoromethoxyphenyl)ethyl]-7-azabicyclo[2.2.1]hept-1-yl}methanol], the Emax at 10 µM in test [1] and in test [2] was below 25% throughout.

As for `O[C@H](c1cncc(F)c1)C12CCC(CCc3ccc(OC(F)(F)F)cc3)(CC1)N2` [Compound 545, (R)-(5-fluoro-3-pryidyl){4-[2-(p-trifluoromethoxyphenyl)ethyl]-7-azabicyclo[2.2.1]hept-1-yl}methanol], the Emax at 10 µM in test [1] and in test [2] was below 25% each time.

Turning to `O[C@H](c1cccc(F)c1)C12CCC(CCc3ccc(OC(F)(F)F)cc3)(CC1)N2` [Compound 546, (R)-(m-fluorophenyl){4-[2-(p-trifluoromethoxyphenyl)ethyl]-7-azabicyclo[2.2.1]hept-1-yl}methanol], the Emax at 10 µM in test [1] and in test [2] was below 25% in each case.

In the case of `O[C@@H](c1ccccc1F)C12CCC(CCc3cccnc3)(CC1)N2` [Compound 547, (S)-(o-fluorophenyl){4-[2-(3-pyridyl)ethyl]-7-azabicyclo[2.2.1]hept-1-yl}methanol], the figures for the Emax at 10 µM in test [1] and in test [2] were above 75% and below 25%, respectively.
